The results in this text go back to patent US20130109581A1, “POSITIVELY CHARGED SPECIES AS BINDING REAGENTS IN THE SEPARATION OF PROTEIN AGGREGATES FROM MONOMERS” (priority 2009, published 2013).

One test has as its target T1, Aβ(1-42) aggregates (Homo sapiens, UniProt P05067).
T1 construct: For Aβ(1-42), 10 nL of 10% brain homogenate was added to each well; from tissue; host or cells: Alzheimer's disease patient brain homogenate
Type of test: binding.

In another test the test system is tau aggregates. In kind it is binding, human.
Test [1] addresses T2, E22G globulomer (beta amyloid 1-42, Arctic mutation) (Homo sapiens, UniProt P05067, E693G).
T2 construct: Three beta amyloid 1-42 peptides were generated to test the role of E22; purchased Anaspec
The test is described as follows: NMPA capture of E22G globulomer. In kind it is binding. Conditions: neutrally charged mutant; FIG. 8. The text has this:
(§1) Three beta amyloid 1-42 peptides were generated to test the role of E22: a wild-type peptide, a mutant peptide containing Arctic mutation E22G with a neutral charge, and a mutant peptide containing Italian mutation E22K with a positive charge. Synthetic peptides were commercially available from Anaspec.
(§2) Mutant peptides were oligomerized according to the methods described in Example 3.
NMPA was used to evaluate the ability of PSR1 to capture the E22G globulomer. The methods used are described in Example 2.

Test [2] deals with T3, E22K globulomer (beta amyloid 1-42, Italian mutation) (Homo sapiens, UniProt P05067, E693K).
T3 construct: Three beta amyloid 1-42 peptides were generated to test the role of E22; purchased Anaspec
The test is described as follows: NMPA capture of E22K globulomer. In kind it is binding. As to conditions: positively charged mutant; FIG. 10.
Source text: as §1, §2

The target of another test is Aβ42 ADDL (Homo sapiens, UniProt P05067). The test is described as follows: Misfolded Protein Assay, LoD and capture in CSF: ADDL. In kind it is binding. Conditions: for LoD: spiked into CSF. On the procedure:
(§3) The Ab42 aggregates were prepared as previously described: fibrils were prepared per Stine et al (JBC 2003, 278, p11612), globulomers were prepared per Barghorn et al (J Neurology 2005 95 p834), ADDLs were prepared per Lambert et al (PNAS 1998, 95 p6448), and ASPDs were prepared per Noguchi et al (JBC 2009 284 p32895). Normal CSF was pooled from clinically characterized non-demented patient CSF samples. AD CSF was pooled from clinically-characterized AD patient samples. Alzheimer's Disease Brain Homogenate (ADBH) was prepared by sonication of clinically diagnosed AD patient brain samples in 0.2M.sucrose (1:10 w/v).
(§4) For the capture assay (Misfolded Protein Assay), aliquots of the beads (30 ul) were added to wells of a 96 well plate, followed by 125 ul of sample in 80:20 CSF:TBSTT. The plate was sealed and incubated for 1 h at 37 C with shaking. The plate was washed with TBST and the residual buffer removed. A denaturing solution (0.1 N NaOH) was added to each well and the plate heated to 80 C. for 30 min with shaking. After cooling the plate to RT, a neutralizing buffer (0.12 M NaH2PO3-0.4% TW20,) was added and the plate shaken briefly at RT. The assay was analyzed using the triplex Mesoscale Discovery ELISA kit for Aβ. The Aβ in the samples eluted from the beads were detected per the manufacturer's protocol.
(§5) For the Limit of Detection (LoD) studies, serial dilutions of each aggregate were spiked into CSF and were assayed per the protocol described above. The LoD was defined as 2× over background levels.
(§6) This pattern minors the capture selectivity observed when these species are tested with 3 ul of PSR1 beads and 1 ng/mL of aggregate.

Another test deals with T4, Aβ42 Fibrils (Homo sapiens, UniProt P05067).
T4 construct: The Ab42 aggregates were prepared as previously described
The test is described as follows: Misfolded Protein Assay, LoD and capture in CSF: fibrils. In kind it is binding. Conditions: for LoD: spiked into CSF. How it is done:
as §3, §4, §5, §6

In test [3] the target is T5, Aβ40 aggregates in AD CSF (Homo sapiens, UniProt P05067).
T5 construct: from tissue; host or cells: pooled cerebrospinal fluid (normal or AD)
Nature of the test: Discrimination between AD and normal CSF. In kind it is binding. Conditions: FIG. 39. On the procedure: as §3, §4
For discriminating between AD and normal CSF, pooled normal CSF or pooled Alzheimer's Disease patient CSF, were assayed per the protocol described above.

In a further test the target is PrP^Sc (Mesocricetus auratus, UniProt P04273).
Chain of PrP^Sc (P04273 23-231 limits assumed): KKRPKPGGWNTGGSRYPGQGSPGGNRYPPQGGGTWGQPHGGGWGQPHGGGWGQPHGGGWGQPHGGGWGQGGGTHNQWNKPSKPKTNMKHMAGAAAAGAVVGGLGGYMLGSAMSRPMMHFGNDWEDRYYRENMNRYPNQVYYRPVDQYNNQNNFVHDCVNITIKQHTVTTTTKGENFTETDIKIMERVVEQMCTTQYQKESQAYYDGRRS
Test [4] concerns the target T6, oligomeric beta amyloid 1-42 (globulomer) (Homo sapiens, UniProt P05067).
T6 construct: beta amyloid (1-42) was monomerized with incubation in hexafluoroisopropanol
Nature of the test: Misfolded Protein Assay: capture of globulomer spiked into CSF (Example 2). Type of test: binding. Conditions: conjugated to cellulose membrane; loading approximately 100× higher than on beads.

Setting [5] is: 3 ul of beads and 1 ng/mL of aggregate.

Where “and” joins values, the source holds several entries; their conditions need not be identical. Equal entries are not always repeated. Entries after “also recorded” stand apart in the source; their conditions may differ. Bounds are passed on as bounds.

For the substance Nab-Nab-Nab-Nbn-Nab-Nbn [PSR1], at Aβ(1-42) aggregates, the “distinguishing control and AD brain homogenates, Abeta (1-42) detected” value is “clearly distinguished between control and either vCJD or AD samples”. Also, the “distinguishing control and AD brain homogenates, Tau detected” value in the test with tau aggregates was “clearly distinguished between control and either vCJD or AD samples”. For the same substance, in the test on tau aggregates, the “total Tau signal, AD vs normal brain homogenate” value is given as “higher signals in the AD samples relative to the normal brain homogenates; also recorded: highest signal”. Besides, the “capture of E22G globulomer” value in test [1] is reported as “not captured”. In addition, the “capture of E22K globulomer” value in [2] is reported as “captured efficiently”. Moreover, at Aβ42 ADDL (setting [5]), the “capture of ADDL” value is 1219. For the same substance, the LoD at Aβ42 ADDL is about 20 amol; on Aβ42 ADDL (LoD = 2× over background), ~200 pg/mL and 200 pg/mL; on Aβ42 Fibrils it was under 2 amol; on Aβ42 Fibrils (LoD = 2× over background) it was ~50 pg/mL and 50 pg/mL. The “capture of Fibril” value at Aβ42 Fibrils (setting [5]) stood at 3636. The “Aβ40 signal in pooled AD CSF relative to normal pool” value in test [3] is on record as “higher Aβ40 signal in positive pooled AD CSF relative to unmatched normal pool”. In addition, the “PrP^Sc capture signal” value on PrP^Sc is recorded as “Signal was observed with the 100 or 300 ng/mL spike levels”. Further, the “ability to bind preferentially to oligomers in solution” value in test [4] was “continued to increase the ability of PSR1 to bind preferentially to oligomers in solution”.
